Values after ≈ are worked out from the molar mass of the structure shown.

Common to all, as to format: cell-based
The subject of experiment [1] is Pseudomonas aeruginosa (ATCC27853). In words: rapid drug susceptibility testing of living cells (live bacteria counting, 2 h). The conditions noted are these: for Living cell counts: 2 h. The protocol:
(§1) 1.2.1 Preparation of bacterial strains: in accordance with the requirements of the CLSI standards, pick each fresh strains within 24 h with a turbidity of 0.5 McFarland units in the column of strain name in Table 7.
(§2) 1.2.2 Inoculation: take 100 μL of each bacterial suspension with a turbidity of 0.5 McFarland units and dispense to a 48-well plate with pre-configured gradient antibiotics, 500 μL dispensed in each well.
(§3) 1.2.3 Incubation and detection: incubate for 2 h at 37° C., and perform live bacteria counting. Record the 24 h routine susceptibility results for comparative analysis.

Experiment [2] shares this test system. Description: 2 h susceptibility by resistance bacterial counter. The conditions noted are these: Example 3, resistance counting, 2 h at 37° C., 60% of the positive count value as threshold. The protocol: (§4) 2.2.1 Preparation of bacterial strains: In accordance with the requirements of the CLSI standards, pick each fresh strains within 24 h with a turbidity of 0.5 McFarland units in the column of strain name in Table 5;
(§5) 2.2.2 Inoculation: Take 100 μL of each bacterial suspension with a turbidity of 0.5 McFarland units and dispense to a 48-well plate with pre-configured gradient antibiotics, 500 μL dispensed in each well;
(§6) 2.2.3 Incubation and detection: Incubate for 2 h at 37° C., and measure with a resistance bacterial counter. Adjust the instrument to its best sensitivity and then count bacteria. Record the 24 h routine susceptibility results for comparative analysis.

The test system is the same in experiment [3]. Description: 24 h routine (conventional) drug susceptibility testing by visual observation.
Experiment [4] has as its system Staphylococcus aureus (ATCC29213). The experiment is described as above.
Experiment [5] shares this test system. Description: rapid drug susceptibility testing of living cells (live bacteria counting, 2 h). The conditions noted are these: for Living cell counts: 2 h. The protocol: as §1, §2, §3
The test system is the same in experiment [6]. In words: 2 h susceptibility by resistance bacterial counter. Conditions: Example 3, resistance counting, 2 h at 37° C., 60% of the positive count value as threshold. The protocol:
as §4, §5, §6

Where [7] appears, read: Example 4, live bacteria counting, 2 h at 37° C.
Setting [8] is: Example 3, 24 h routine susceptibility.
[9] abbreviates: Example 4, 24 h routine susceptibility.

On to `CC(C)(O/N=C(\C(=O)N[C@@H]1C(=O)N2C(C(=O)[O-])=C(C[n+]3ccccc3)CS[C@H]12)c1csc(N)n1)C(=O)O` [Ceftazidime], for which the Living cell counts in experiment [1] (0.03 μg/mL) stood at 1509 cells/μL; in experiment [1] (0.06 μg/mL), 1478 cells/μL; in experiment [1] (0.12 μg/mL), 1513 cells/μL; in experiment [1] (0.25 μg/mL), 1480 cells/μL; in experiment [1] (0.5 μg/mL), 1235 cells/μL; in experiment [1] (1 μg/mL), 1090 cells/μL. In addition, the Living cell counts in experiment [1] (2 μg/mL) is on record as 308 cells/μL; in experiment [1] (4 μg/mL) it was 297 cells/μL; in experiment [1] (8 μg/mL), 202 cells/μL; in experiment [1] (16 μg/mL) it was 209 cells/μL. In addition, the MIC, rapid drug susceptibility testing of living cells in experiment [1] (setting [7]) worked out at 2 µg/mL. Further, the “2 hMIC” value in experiment [2] came to 4. For the same compound, the “24 hMIC” value in experiment [3] (setting [8]) came to 2. For the same compound, the MIC, conventional drug susceptibility testing in experiment [3] (setting [9]) turned out to be 2 µg/mL (≈ 3.66 µM).
On to `CC[C@H]1OC(=O)[C@H](C)[C@@H](O[C@H]2C[C@@](C)(OC)[C@@H](O)[C@H](C)O2)[C@H](C)[C@@H](O[C@@H]2O[C@H](C)C[C@H](N(C)C)[C@H]2O)[C@](C)(O)C[C@@H](C)C(=O)[C@H](C)[C@@H](O)[C@]1(C)O` [Erythromycin], for which, in experiment [4] (setting [8]), the “24 hMIC” value was 0.25. The compound further registered an MIC, conventional drug susceptibility testing in experiment [4] (setting [9]) of 0.25 µg/mL (≈ 0.341 µM). Also, the Living cell counts amounted to 5107 cells/μL in experiment [5] (0.03 μg/mL); 5078 cells/μL in experiment [5] (0.06 μg/mL); 3980 cells/μL in experiment [5] (0.12 μg/mL); 889 cells/μL in experiment [5] (0.25 μg/mL); 609 cells/μL in experiment [5] (0.5 μg/mL); 598 cells/μL in experiment [5] (1 μg/mL). Further, the Living cell counts came out at 498 cells/μL in experiment [5] (2 μg/mL), 460 cells/μL in experiment [5] (4 μg/mL), 446 cells/μL in experiment [5] (8 μg/mL) and 457 cells/μL in experiment [5] (16 μg/mL). The MIC, rapid drug susceptibility testing of living cells in experiment [5] (setting [7]) was 0.25 µg/mL. Moreover, in experiment [6], the “2 hMIC” value is recorded as 0.5.

The values are drawn from patent publication US20220195487A1, “Method for Measuring Inhibition of Bacteria by Antibacterial Drug, and Bacterial Counting Device and Method Thereof” (BEIJING XINJI JINNUO MEDICAL EQUIPMENT CO.,LTD., priority 2019, published 2022).
